Test results taken from paper PMC6801448, “The Antioxidant and Antiproliferative Activities of 1,2,3-Triazolyl-L-Ascorbic Acid Derivatives” (International Journal of Molecular Sciences, 2019).
“Also recorded” adds a separate entry of the source.

Experiments:
MCF-7 cells = assay: Annexin V apoptosis detection assay; format: cell-based, Human
Method: A total of 2 × 10^4 MCF-7 cells were seeded into 8-well Nunc Lab-Tek II Chamber Slide system (Thermo Fischer Scientific, Waltham, MA, USA), and treated with compound 4e at 1 × IC50 and 2 × IC50 for 24 and 48 h. The assay (Annexin-V-FLUOS Staining kit, Roche Applied Science, Penzberg, Germany) was preformed according to the manufacturer protocol. Slides were analyzed by fluorescence microscopy (Zeiss Axio Observer Z1 Inverted Phase Contrast Fluorescent Microscope, Jena, Germany)).

WI-38 (lung fibroblasts) = assay: MTT proliferation assay, WI-38; format: cell-based; conditions: Homo sapiens, 72 h, normal lung fibroblasts
Outline: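 The 72 h proliferation test exposed cells, seeded at 5000 per well a day before, to compound concentrations spanning 0.01 μM to 100 μM. Viability was measured by MTT reduction over 3 h with absorbance at 570 nm, and IC50 values were derived by regression of the concentration–growth curves.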

[1] = test system: hydroxylated HIF-1α (Pro564); assay: Western blot of hydroxy-HIF-1α in MCF-7 cells; format: cell-based, Human; conditions: MCF-7, 6.72 µM, 48 h
Method: Protein lysates were prepared using RIPA buffer containing cocktail of protease and phosphatase inhibitors (Roche, Basel, Switzerland). Amounts of 50 μg of proteins were resolved on 12% SDS polyacrylamide gels using the Mini-protean cell (Bio-Rad, Hercules, CA, USA). The membranes were incubated with primary antibodies raised against hydroxy-HIF-1α (Pro564) (HIF-1α, 1:1000, rabbit mAb, Cell Signaling Technology, NL) and NOS2 (1:500, mouse mAb, SantaCruzBiotechnology, Dallas, TX, USA) at 4 °C overnight. A secondary antibody linked to anti-mouse (1:1000, Dako, Santa Clara, CA, USA) was used. The signal was visualized by the Western Lightening Chemiluminescence Reagent Plus Kit (Perkin Elmer, Massachusetts, MA, USA) on the ImageQuant LAS500 (GE Healthcare, Chicago, IL, USA), and as a loading control, α-tubulin (1:1000, mouse mAb, Sigma, Sigma Aldrich, Darmstadt, Germany) was used. The signal intensities of bands were normalized and compared in Quantity One software (Bio-Rad, Hercules, CA, USA). Differences in protein relative expression status obtained by western blot analysis were analyzed by two-tailed, paired t-tests (p < 0.05) in the Statistica software package (v.12.0).

[2] = design: method as in PMID 20925411; conditions: experimental acid dissociation constant; cited from earlier work
[3] = MCF-7, 24 h, 6.72 µM (1 × IC50)
[4] = MCF-7, 24 h, 13.44 µM (2 × IC50)
[5] = MCF-7, 24 h, 1 × IC50, versus untreated cells
[6] = MCF-7, 48 h, 6.72 µM (1 × IC50)
[7] = MCF-7, 48 h, 13.44 µM (2 × IC50)

Row | SMILES | Early Apoptosis (%) (MCF-7 cells; [3]) | Late Apoptosis (%) (MCF-7 cells; [3]) | Necrosis (%) (MCF-7 cells; [3]) | Early Apoptosis (%) (MCF-7 cells; [4]) | Late Apoptosis (%) (MCF-7 cells; [4]) | Necrosis (%) (MCF-7 cells; [4]) | increase in early apoptotic cell population (MCF-7 cells; [5]) [%] | increase in late apoptotic cell population (MCF-7 cells; [5]) [%] | Early Apoptosis (%) (MCF-7 cells; [6]) | Late Apoptosis (%) (MCF-7 cells; [6]) | Necrosis (%) (MCF-7 cells; [6]) | Early Apoptosis (%) (MCF-7 cells; [7]) | Late Apoptosis (%) (MCF-7 cells; [7]) | Necrosis (%) (MCF-7 cells; [7]) | percentage of cells in early apoptosis higher than in untreated cells (MCF-7 cells; MCF-7, 48 h, 1 × IC50, versus untreated cells) [%] | IC50 (WI-38 (lung fibroblasts)) [µM] | hydroxylated HIF-1α (Pro564) expression [1] | pKa,2 (experimental) [2]
1 | O=C1O[C@H]([C@@H](O)Cn2cc(-c3ccc(Br)cc3)nn2)C(O)=C1O [Compound 4e, 6-[4-(4-bromophenyl)-1,2,3-triazol-1-yl]-6-deoxy-L-ascorbic acid] | 30.6 | 6.4 | 0.8 | 5.3 | 38.1 | 15.9 | 12.4 | 2.0 | 46.6 | 4.2 | 0.8 | 9.1 | 2.3 | 0 | 35.2 | 73.9 | statistically significant increase; also recorded: strongly increased | 
2 | O=C1O[C@H]([C@@H](O)CO)C(O)=C1O [L-ASA, L-ascorbic acid] |  |  |  |  |  |  |  |  |  |  |  |  |  |  |  |  |  | 11.4
